Source: article PMC11149917, “Translational and Therapeutic Evaluation of RAS-GTP Inhibition by RMC-6236 in RAS-Driven Cancers” (Cancer Discovery, 2024)
Where “and” joins values, the source holds several entries; their conditions need not be identical. Identical values can stand only once.

Tests used:
[1] = test system: DUSP6 mRNA in HPAC xenograft tumors; assay: In vivo PD by DUSP6 qPCR and PK/PD relationship; design: species or system mouse; conditions: for % inhibition of DUSP6 vs control: HPAC #11, 1 mg/kg, individual animals
Protocol: (§1) Tumor-bearing animals were randomized and assigned into groups (n = 1–10/group). The vehicle at 10 mL/kg or RMC-6236 at indicated doses was administered via oral gavage daily, and animals were treated for 28 days, or up to 90 days if PFS was being assessed. […] For single-dose PKPD study, mice were randomized and assigned into groups (n = 3/dose/time point). A single dose of RMC-6236 was administered orally at either 3, 10, or 25 mg/kg. Blood and tissues, including the tumor, brain, colon, ear skin, and muscle, were harvested at indicated time points. Whole blood was collected in K2EDTA Microtainer tubes, incubated for 5 minutes, and snap-frozen in liquid nitrogen. The tissue was either fixed in 10% formalin or snap-frozen in liquid nitrogen for further analysis.
(§2) RNA was extracted from at least 20 mg of tissue using an RNeasy Mini Kit (Qiagen, 74104) and a High-Throughput Tissue grinder following the manufacturer's protocol. Reverse transcription was carried out using High-Capacity cDNA Reverse Transcription Kit (ABI, 4368814) according to the manufacturer's protocol. The cDNA product was used for qPCR analysis using TaqMan Gene-Expression Master Mix (ABI, 4369016). TaqMan primer probes specific to DUSP6 (human—Hs00737962_m1, murine—Mm00518185_m1, FAM-MGB) and 18S (RNA18S1; human—Hs99999901_s1, murine—Mm03928990_g1, FAM-MGB, used as an internal control gene) were used to detect the levels from each sample in duplicates using a 10 µL final reaction volume in a 384-well clear optical reaction plate. For qPCR, Ct values of DUSP6 and 18S were obtained for analysis. DUSP6 Ct value was normalized to 18S, and then the mean relative mRNA expression levels of each group were normalized to the vehicle control group. Values were plotted as relative change in mRNA expression compared with vehicle. Means ± SEM were shown.
(§3) Concentrations of RMC-6236 in tumor or normal tissues and percentage of DUSP6 inhibition as compared with the vehicle control from individual animals were collected and analyzed post a single dose of RMC-6236 ranging from 0.3 to 100 mg/kg (Supplementary Table S6). A 3-parameter sigmoidal exposure–response model was fitted to the data in GraphPad Prism to derive EC50 and EC90 values.

[2] = test system: DUSP6 mRNA in NCI-H441 xenograft tumors; assay: In vivo PD by DUSP6 qPCR and PK/PD relationship; design: species or system mouse; conditions: for % inhibition of DUSP6 vs control: NCI-H441 xenograft tumor
Protocol: as §1, §2, §3

Structure (SMILES): CCn1c(-c2cc(N3CCN(C)CC3)cnc2[C@H](C)OC)c2c3cc(ccc31)-c1csc(n1)C[C@H](NC(=O)[C@H]1C[C@@H]1C)C(=O)N1CCC[C@H](N1)C(=O)OCC(C)(C)C2 [RMC-6236]
- % inhibition of DUSP6 vs control ([1]; 4h): 48.3% and 77.5% and 97.1%
- % inhibition of DUSP6 vs control ([1]; 8h): 86.3% and 83.8% and 49.4%
- % inhibition of DUSP6 vs control ([1]; 24h): 4.9% and 0% and 23.3%
- % inhibition of DUSP6 vs control ([1]; 48h): 24.6% and 0% and 42.3%
- EC50 ([1]; Mus musculus, HPAC, read-out: EC50, inhibition of DUSP6 expression vs RMC-6236 concentration (PK/PD relationship)): 135 nM
- EC90 ([1]; Mus musculus, HPAC, read-out: EC90, inhibition of DUSP6 expression vs RMC-6236 concentration (PK/PD relationship)): 925 nM
- DUSP6 mRNA Expression (%) ([2]; Model Development Dataset, 25mg/kg_study8, 1 h): 30.3376%
- DUSP6 mRNA Expression (%) ([2]; Model Development Dataset, 25mg/kg_study8, 2 h): 11.6899%
- DUSP6 mRNA Expression (%) ([2]; Model Development Dataset, 25mg/kg_study8, 8 h): 1.524%
- DUSP6 mRNA Expression (%) ([2]; Model Development Dataset, 25mg/kg_study8, 24 h): 8.817%
- DUSP6 mRNA Expression (%) ([2]; Model Development Dataset, 25mg/kg_study8r (doses every 24 h, 0-[…]), 240 h): 3.766%
- DUSP6 mRNA Expression (%) ([2]; Model Development Dataset, 40mg/kg_study8, 1 h): 65.2423%
- DUSP6 mRNA Expression (%) ([2]; Model Development Dataset, 40mg/kg_study8, 2 h): 13.6285%
- DUSP6 mRNA Expression (%) ([2]; Model Development Dataset, 40mg/kg_study8, 8 h): 4.661%
- DUSP6 mRNA Expression (%) ([2]; Model Development Dataset, 40mg/kg_study8, 24 h): 3.474%
- DUSP6 mRNA Expression (%) ([2]; Model Development Dataset, 40mg/kg_study8r (doses every 24 h, 0-[…]), 240 h): 0.8569%
- DUSP6 mRNA Expression (%) ([2]; Model Validation Dataset, 10mg/kg_study6, 1 h): 45.187%
- DUSP6 mRNA Expression (%) ([2]; Model Validation Dataset, 10mg/kg_study6, 8 h): 5.053%
- DUSP6 mRNA Expression (%) ([2]; Model Validation Dataset, 10mg/kg_study6, 24 h): 13.225%
- DUSP6 mRNA Expression (%) ([2]; Model Validation Dataset, 10mg/kg_study6, 48 h): 62.867%
- DUSP6 mRNA Expression (%) ([2]; Model Validation Dataset, 25mg/kg_study6, 1 h): 48.7936%
- DUSP6 mRNA Expression (%) ([2]; Model Validation Dataset, 25mg/kg_study6, 8 h): 5.7726%
- DUSP6 mRNA Expression (%) ([2]; Model Validation Dataset, 25mg/kg_study6, 24 h): 9.122%
- DUSP6 mRNA Expression (%) ([2]; Model Validation Dataset, 25mg/kg_study6, 48 h): 14.7114%
- DUSP6 mRNA Expression (%) ([2]; Model Validation Dataset, 25mg/kg_study6, 72 h): 12.5199%
- DUSP6 mRNA Expression (%) ([2]; Model Validation Dataset, 50mg/kg_study6, 1 h): 16.7798%
- DUSP6 mRNA Expression (%) ([2]; Model Validation Dataset, 50mg/kg_study6, 8 h): 5.52%
- DUSP6 mRNA Expression (%) ([2]; Model Validation Dataset, 50mg/kg_study6, 24 h): 5.873%
- DUSP6 mRNA Expression (%) ([2]; Model Validation Dataset, 50mg/kg_study6, 48 h): 10.9912%
- DUSP6 mRNA Expression (%) ([2]; Model Validation Dataset, 50mg/kg_study6, 72 h): 10.0613%
- EC50 ([2]; Mus musculus, NCI-H441, read-out: EC50, inhibition of DUSP6 expression vs RMC-6236 concentration (PK/PD relationship)): 117 nM
- EC90 ([2]; Mus musculus, NCI-H441, read-out: EC90, inhibition of DUSP6 expression vs RMC-6236 concentration (PK/PD relationship)): 1120 nM
- % inhibition of DUSP6 vs control ([2]; study NCI-H441#6, 10 mg/kg, 8h): 94.3996% and 97.36% and 93.0812%
- % inhibition of DUSP6 vs control ([2]; study NCI-H441#6, 10 mg/kg, 24h): 92.8123% and 75.0577% and 92.455%
- % inhibition of DUSP6 vs control ([2]; study NCI-H441#6, 25 mg/kg, 8h): 92.2964% and 95.8141% and 94.5716%
- % inhibition of DUSP6 vs control ([2]; study NCI-H441#6, 25 mg/kg, 24h): 90.5813% and 91.1816% and 90.8706%
- % inhibition of DUSP6 vs control ([2]; study NCI-H441#6, 25 mg/kg, 48h): 88.2424% and 92.0524% and 75.571%
- % inhibition of DUSP6 vs control ([2]; study NCI-H441#6, 50 mg/kg, 8h): 94.9176% and 94.1618% and 94.3607%
- % inhibition of DUSP6 vs control ([2]; study NCI-H441#6, 50 mg/kg, 24h): 95.6815% and 94.6463% and 92.0524%
- % inhibition of DUSP6 vs control ([2]; study NCI-H441#6, 50 mg/kg, 48h): 89.9053% and 88.838% and 88.2831%
- % inhibition of DUSP6 vs control ([2]; study NCI-H441#6, 100 mg/kg, 8h): 96.2144% and 97.8257% and 94.7565%
- % inhibition of DUSP6 vs control ([2]; study NCI-H441#6, 100 mg/kg, 24h): 96.5645% and 97.2858% and 99.0371%
- % inhibition of DUSP6 vs control ([2]; study NCI-H441#6, 100 mg/kg, 48h): 97.3783% and 95.7557% and 95.9427%
- % inhibition of DUSP6 vs control ([2]; study NCI-H441#8, 25 mg/kg, 2h): 93.3108% and 86.9874% and 84.6322%
- % inhibition of DUSP6 vs control ([2]; study NCI-H441#8, 25 mg/kg, 8h): 99.2306% and 96.8685% and 99.3302%
- % inhibition of DUSP6 vs control ([2]; study NCI-H441#8, 25 mg/kg, 24h): 93.9294% and 85.711% and 93.9083%
- % inhibition of DUSP6 vs control ([2]; study NCI-H441#8, 40 mg/kg, 2h): 77.4222% and 82.1626% and 99.5296%
- % inhibition of DUSP6 vs control ([2]; study NCI-H441#8, 40 mg/kg, 8h): 94.9481% and 94.7152% and 96.3527%
- % inhibition of DUSP6 vs control ([2]; study NCI-H441#8, 40 mg/kg, 24h): 94.2767% and 98.3791% and 96.9223%
- % inhibition of DUSP6 vs control ([2]; study NCI-H441#10, 0.3 mg/kg, 8h): 46.2112% and 70.874% and 74.5563%
- % inhibition of DUSP6 vs control ([2]; study NCI-H441#10, 0.3 mg/kg, 48h): 38.4266% and 52.8484% and 73.0122%
- % inhibition of DUSP6 vs control ([2]; study NCI-H441#10, 1 mg/kg, 48h): 52.6847% and 48.936% and 65.7214%
- % inhibition of DUSP6 vs control ([2]; study NCI-H441#10, 10 mg/kg, 8h): 85.6375% and 96.6614% and 94.5007%
- % inhibition of DUSP6 vs control ([2]; study NCI-H441#10, 10 mg/kg, 24h): 85.7861% and 76.2602% and 81.9462%
- % inhibition of DUSP6 vs control ([2]; study NCI-H441#10, 10 mg/kg, 48h): 44.699% and 49.9869% and 60.6243%
- % inhibition of DUSP6 vs control ([2]; study NCI-H441#13, 0.3 mg/kg, 8h): 54.8539% and 55.936% and 78.3465%
- % inhibition of DUSP6 vs control ([2]; study NCI-H441#13, 1 mg/kg, 2h): 47.4169% and 56.5427% and 69.4833%
